In article PMC11645267, “Novel pharmacologic inhibition of lysine-specific demethylase 1 as a potential therapeutic for glioblastoma” (Cancer Gene Therapy, 2024):

Legend:
Type in all cases: cell-based
[1] = tested on: GSC cells; assay: mRNA expression of super-enhancer-associated genes; settings: 96 h
Method: RNA-seq analysis was conducted to examine gene expression changes associated with super-enhancers/enhancers. Among the genes with de novo H3K4me2 modification, the average log2 fold changes (S2172 treatment relative to DMSO treatment) were −0.12 ± 0.03 for super-enhancer-related genes and −0.01 ± 0.01 for typical enhancer-related genes (P = 0.0004) (Supplementary Fig. S6B). In contrast, among the genes with increased H3K4me2 modification, the average log2 fold changes were −0.04 ± 0.01 for super-enhancer-related genes and −0.07 ± 001 for typical enhancer-related genes (P = 0.028) (Supplementary Fig. S6C). […]
(§1) instructions. For GSC cells, the CellTiter-Glo 3D Viability Assay (Promega, Madison, WI, USA) was used to measure the living cells. All proliferation experiments were repeated […]
Total RNA from the cell lines was extracted using TRIzol (Thermo Fisher Scientific), followed by reverse-transcription using Prime Script RT Master Mix (Takara, Kusatsu, Japan). TaqMan qPCR (Roche Diagnostics, Basel, Switzerland) and SYBR Green qPCR (TOYOBO, Osaka, Japan) were performed at least in triplicate for the target genes.
Expression levels of each gene were normalized to GAPDH. GAPDH for TaqMan PCR assays was Hs.PT.39a.22214836 (Integrated DNA Technologies, Coralville, IA, USA).
Oligonucleotide primers used for SYBR Green assays are shown in Supplementary […]

[2] = tested on: KINGS1; assay: Western blot of global histone modifications; settings: KINGS1, 5 μM, 96 h
Method: The effects of S2172 on global histone modifications in GSCs were examined using western blot analysis. GSC cells were treated with 5 μM of S2172 since […] of the cells are still viable at this concentration (Fig. 2, Supplementary Fig. S1E). […] Treatment of GSCs with S2172 increased the overall levels of H3K4me2 as well as H3K9me2. However, these changes were not statistically significant (Fig. 2A, B). […]
as §1
The density of bands was quantified using ImageJ software (https://imagej.nih.gov/ij/). […]
When mice were scanned with MRI, mice were anesthetized with isoflurane (3% in air) and placed in MRS 3017 Benchtop MRI Systems (MR Solutions, Guildford, UK). Using MRI images, tumor volumes were obtained by compiling tumor areas from all slices that contained tumors and calculated by ImageJ software (https://imagej.nih.gov/ij/) {Towner, […]
B. Western blot analysis of LSD1,MYC, Nestin, SOX2,and ACTB in same cells as shown in panel A. ACTB was used as a loading control. […] Quantification of signal intensities of the Western blot (right panel). […] Right panel: Quantification of band signal intensities from the Western blot. […]

[3] = tested on: GSC222; assay: Cell proliferation assay (CellTiter-Glo 3D); settings: GSC222, 96 h; read-out: Growth inhibitory IC50 (GI50)
Method: (§2) Supplementary materials and methods […]
(§3) Cell lines and culture conditions […]
(§4) 2013 #1009}{Katsushima, 2016 #1156}. GSC cells were cultured in Neurobasal Medium (Life Technologies, Carlsbad, CA, USA) containing N2 and B27 supplements (Life Technologies) along with human recombinant basic fibroblast growth factor and epidermal growth factor (20 ng/ml each; R&D Systems, Minneapolis, MN, USA). Cells were cultured at 37°C in a humidified incubator with 5% CO2.
(§5) For the cell proliferation assay, cells at a density of 1 × 10^5 cells per well were seeded before treatment with LSD1 inhibitors. Cell proliferation was measured after 4 days using a Cell Counting Kit 8 (Dojindo, Kumamoto, Japan) according to the manufacturer ’s […]
(§6) instructions. For GSC cells, the CellTiter-Glo 3D Viability Assay (Promega, Madison, WI, USA) was used to measure the living cells. […]

[4] = tested on: GSC316; assay: Cell proliferation assay (CellTiter-Glo 3D); settings: GSC316, 96 h; read-out: Growth inhibitory IC50 (GI50)
Method: as §2, §3, §4, §5, §6

[5] = tested on: GSC1228; assay: Cell proliferation assay (CellTiter-Glo 3D); settings: GSC1228, 96 h; read-out: Growth inhibitory IC50 (GI50)
Method: as §2, §3, §4, §5, §6

Compound: NC1CCC(NC2CC2c2cc(F)cc(F)c2OCc2ccccc2)CC1 (centres unmarked) [S2172]
- expression of super-enhancer-associated genes EGR1 and CDK6 [1]: downregulated
- levels of H3K4me1, H3K4me2, H3K4me3, and H3K9me2 [2]: slight increase
- IC50 [3]: 17 µM
- IC50 [4]: 12 µM
- IC50 [5]: 12.5 µM
